Measurements from patent US11865086B2, “Cinnamaldehyde derivative compounds and methods of use for cinnamaldehyde derivative compounds nicotine cessation” (Pacific University, priority 2018, dated 2024).
Where two headings read alike, the source gives them in different places.

How the values were obtained:
[1] = rat, in vivo, po, 250 mg/kg; cited from earlier work
CYP2A6 [2] = target: T1, CYP2A6 (Homo sapiens, UniProt P11509); assay: biochemical
T1 sequence (P11509 1-494): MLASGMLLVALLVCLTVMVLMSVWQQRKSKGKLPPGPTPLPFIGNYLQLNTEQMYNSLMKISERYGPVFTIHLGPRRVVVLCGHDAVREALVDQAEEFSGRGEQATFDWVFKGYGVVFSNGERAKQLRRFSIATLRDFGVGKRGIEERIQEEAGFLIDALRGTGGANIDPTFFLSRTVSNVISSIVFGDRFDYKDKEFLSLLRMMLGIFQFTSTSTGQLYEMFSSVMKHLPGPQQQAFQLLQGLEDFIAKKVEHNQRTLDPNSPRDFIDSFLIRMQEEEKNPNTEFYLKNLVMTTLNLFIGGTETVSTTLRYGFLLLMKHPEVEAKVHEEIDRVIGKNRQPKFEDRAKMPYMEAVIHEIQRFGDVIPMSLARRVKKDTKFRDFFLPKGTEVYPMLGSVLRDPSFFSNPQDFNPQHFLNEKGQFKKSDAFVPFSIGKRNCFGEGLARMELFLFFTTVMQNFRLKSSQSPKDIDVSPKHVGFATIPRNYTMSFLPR
Excerpt: (§1) Since this type of inhibition also requires that the inhibitor is initially metabolized by the target enzyme, MBIs may be identified by evaluating the inhibition in the presence and absence of cofactors that are required for activity, such as NADPH for CYPs.

CYP2A6 [3] = target: T2, CYP2A6 (Homo sapiens, UniProt P11509, K28S/Q25K/Q26K/R27T/W24A); assay: biochemical
T2 sequence (P11509 with tags, fused parts or gaps limits assumed): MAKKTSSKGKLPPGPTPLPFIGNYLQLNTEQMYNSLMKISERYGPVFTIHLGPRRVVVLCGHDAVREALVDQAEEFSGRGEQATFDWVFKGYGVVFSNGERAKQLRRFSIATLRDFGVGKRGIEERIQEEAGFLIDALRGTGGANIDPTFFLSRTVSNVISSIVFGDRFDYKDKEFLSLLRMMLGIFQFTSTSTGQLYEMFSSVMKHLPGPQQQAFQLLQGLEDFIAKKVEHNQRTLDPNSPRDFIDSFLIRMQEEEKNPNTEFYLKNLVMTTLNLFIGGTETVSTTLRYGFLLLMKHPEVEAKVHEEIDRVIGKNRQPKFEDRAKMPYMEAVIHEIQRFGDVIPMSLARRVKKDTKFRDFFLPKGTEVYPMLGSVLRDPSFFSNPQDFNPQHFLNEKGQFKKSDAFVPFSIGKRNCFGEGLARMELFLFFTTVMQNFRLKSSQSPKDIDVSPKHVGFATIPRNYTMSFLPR
Method: Spectral binding studies were conducted using purified heterologously expressed CYP2A6 in Escherichia coli. […] Absorbance changes (A386-A418) may be plotted against added ligand concentrations in order to determine dissociation constants.
In more detail, the CYP2A6 enzyme may be heterologously expressed in Escherichia coli and purified. The expression vector, pKK2A6dH may be used to express the enzyme. The vector contains a cDNA sequence that codes for human CYP2A6 with a deletion of the N-terminal transmembrane sequence, an alteration of several residues at the modified N-terminus to increase expression, and four histidine residues added at the C-terminus to aid in purification. […] Expression from the vector may be induced with the addition of IPTG to bacterial cultures. δ-Aminolevulinic acid is added during expression to supplement heme biosynthesis. The enzyme may be purified following previously reported protocols. Briefly, following cell disruption, the solubilized enzyme may be purified using Ni^2+-affinity chromatography and cation-exchange (CM sepharose) chromatography, which may lead to protein of high purity and P450 content.

[4] = in vivo; cited from earlier work
CYP2A6 [5] = target: T1, CYP2A6; conditions: recombinant enzyme
Excerpt: as §1

CYP2A6 [6] = target: T1, CYP2A6; assay: biochemical; remark: listed apart in the source
Excerpt: A 96-well plate assay and fluorescence spectroscopy may be used to quantify the product, 7-hydroxycoumarin.
Data was fit using GraphPad Prism.

[7] = set-up: species or system humans; conditions: human
Method: This has also observed in rats, for which full pharmacokinetic studies are available. Converting the dose in rats to humanized equivalent doses can estimate the doses necessary to achieve low μM concentrations of CA in humans. […] In rats a single 250 mg/kg oral dose generated a t-CA blood concentration of 7.6 μM. With the BSA method, t-CA doses of 32 mg and 320 mg per day are estimated to achieve concentrations of 0.1 and 1 μM in humans.

**Q.** Which results are given for `O=C/C=C/c1ccccc1` [t-CA, trans-cinnamaldehyde]?
**A.** t-CA blood concentration [1]: 7.6 µM; Ki (CYP2A6 [2]): 27.2 µM; Kd (CYP2A6 [3]): 14.9 µM; absorption upon oral administration [4]: completely absorbed; time-dependent inhibition of CYP2A6, result in words (CYP2A6 [5]): increases with time; IC50 (CYP2A6 [6]): 6.9 ± 1.2 µM; estimated t-CA dose ([7]; 0.1 μM): 32 mg per day; estimated t-CA dose ([7]; 1 μM): 320 mg per day
